Consider 15 molecules from ChEMBL document CHEMBL1158398, “New cyclopentane derivatives as inhibitors of steroid metabolizing enzymes AKR1C1 and AKR1C3” (Eur J Med Chem, 2009).

Structures are written as SMILES. Active and inactive are the calls of the source. No cut-off for these calls is given here.

The target of data set [1] is T1, Aldo-keto reductase family 1 member C1 (Homo sapiens) (UniProt Q04828).
T1 sequence (whole entry): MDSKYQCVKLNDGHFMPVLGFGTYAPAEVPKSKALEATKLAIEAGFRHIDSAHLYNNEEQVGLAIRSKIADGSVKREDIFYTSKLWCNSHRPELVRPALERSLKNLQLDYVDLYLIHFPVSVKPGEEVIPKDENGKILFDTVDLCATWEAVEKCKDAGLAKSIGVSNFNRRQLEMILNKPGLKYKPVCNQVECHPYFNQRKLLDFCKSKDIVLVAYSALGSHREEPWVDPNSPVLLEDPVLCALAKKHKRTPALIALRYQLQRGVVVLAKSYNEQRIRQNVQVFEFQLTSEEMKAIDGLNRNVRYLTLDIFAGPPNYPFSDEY
Nature of the data set: Inhibition of human recombinant GST-tagged AKR1C1 expressed in Escherichia coli BL21 at 100 uM.

The target of data set [2] is T2, Aldo-keto reductase family 1 member C3 (Homo sapiens) (UniProt P42330).
T2 sequence (whole entry): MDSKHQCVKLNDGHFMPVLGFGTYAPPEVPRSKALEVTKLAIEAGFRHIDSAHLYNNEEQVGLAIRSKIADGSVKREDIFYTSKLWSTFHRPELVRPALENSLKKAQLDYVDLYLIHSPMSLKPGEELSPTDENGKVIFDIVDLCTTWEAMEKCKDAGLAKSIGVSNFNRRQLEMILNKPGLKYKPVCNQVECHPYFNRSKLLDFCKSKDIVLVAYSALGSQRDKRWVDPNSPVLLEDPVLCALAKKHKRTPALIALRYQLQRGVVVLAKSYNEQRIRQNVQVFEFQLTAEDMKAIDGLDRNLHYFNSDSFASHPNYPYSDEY
Nature of the data set: Inhibition of human recombinant GST-tagged AKR1C3 expressed in Escherichia coli BL21 at 100 uM.

Data set [3] deals with T3, Aldo-keto reductase family 1 member C1 (Homo sapiens, UniProt Q04828).
T3 sequence (Q04828 whole entry): T1 sequence (whole entry)
Nature of the data set: Inhibition of human recombinant GST-tagged AKR1C1 expressed in Escherichia coli BL21.

In data set [4] the target is T4, Aldo-keto reductase family 1 member C3 (Homo sapiens, UniProt P42330).
T4 sequence (P42330 whole entry): T2 sequence (whole entry)
Nature of the data set: Inhibition of human recombinant GST-tagged AKR1C3 expressed in Escherichia coli BL21.

Data set [5] concerns the target T1, Aldo-keto reductase family 1 member C1 (Homo sapiens). Nature of the data set: Competitive inhibition of human recombinant GST-tagged AKR1C1 expressed in Escherichia coli BL21 at 17.4 uM by Lineweaver-Burke plot analysis.
The target is the same in data set [6]. Nature of the data set: Competitive inhibition of human recombinant GST-tagged AKR1C1 expressed in Escherichia coli BL21 at 36.2 uM by Lineweaver-Burke plot analysis.
Data set [7] shares this target. Nature of the data set: Competitive inhibition of human recombinant GST-tagged AKR1C1 expressed in Escherichia coli BL21 at 72.5 uM by Lineweaver-Burke plot analysis.
Data set [8] has the same target. Nature of the data set: Inhibition of human recombinant GST-tagged AKR1C1 expressed in Escherichia coli BL21 at 50 uM.
Data set [9] deals with T2, Aldo-keto reductase family 1 member C3 (Homo sapiens). Nature of the data set: Inhibition of human recombinant GST-tagged AKR1C3 expressed in Escherichia coli BL21 at 50 uM.
Data set [10] is described as follows: Solubility of the compound. Type of data set: physicochemical.

In general, inhibition refers to the drop in the measured response relative to a control, in per cent. With `Cc1ccc(S(=O)(=O)N[C@@H]2CCC[C@H]2Br)cc1` (relative stereo), the figures for the inhibition in [1] and in data set [2] were 20.3% and 9.2%, respectively.
Usually IC50 stands for the concentration that gives 50% inhibition. What is called Ki is a dissociation constant, usually derived from enzyme kinetics or from competition with a known ligand. With `O=C(O)C1CCC(c2ccccc2)C1` (stereo unspecified), the inhibition is 55.4% in data set [1] and 52.7% in data set [2]. Further, the values for the IC50 in data set [3] and in data set [4] were 98.6 µM and 76.6 µM, respectively. In addition, the values for the Ki in [3] and in [4] were 48.5 µM and 69.6 µM, respectively.
As for `O=C1CCC/C1=C\c1ccc(Cl)cc1`, the inhibition in data set [1] came out at 77.8%; in [2], 88.8%. The IC50 in data set [3] was determined as 35 µM; in data set [4], 36.7 µM. For the same molecule, the Ki was 17.2 µM in data set [3] and 33.4 µM in data set [4]. In addition, the result in data set [5], in data set [6] and in [7] was Active.
`O[C@@H]1CCC[C@H]1Nc1ccccc1` (relative stereo): in [1], the inhibition is 14.7%. Further, in [2], the inhibition entry was “inactive”.
The like results for `O[C@@H]1CCC[C@H]1Cc1ccccc1` (relative stereo) were, in that order, 13.8% and “inactive”.
The like results for `Cc1ccc(S(=O)(=O)N2C3CCCC32)cc1` (stereo unspecified) were, in that order, 2.1% and 2.7%.
The corresponding values for `Cc1ccc(S(=O)(=O)N[C@@H]2CCC[C@H]2C#N)cc1` (relative stereo) are 15.9% and “inactive”.
On to `COC1CCC/C1=C\c1ccc(Cl)cc1` (stereo unspecified), for which the inhibition in data set [1] was 40.1%; in [2], 87.4%. In data set [4], the IC50 was found to be 17.8 µM. Besides, the Ki in data set [4] was found to be 16.2 µM.
Consider `OC1CCCC1(Cc1ccccc1)Cc1ccccc1` (stereo unspecified), for which the figures for the inhibition in data set [8] and in data set [9] were 15.9% and 67.3%, respectively. Further, the solubility result in data set [10] is given as “Insoluble”.
The like results for `OC1C(Cc2ccccc2)CCC1Cc1ccccc1` (stereo unspecified) were, in that order, 11.5%, 46.6% and “Insoluble”.
Regarding `O[C@H]1CCC[C@H]1Cc1ccccc1` (relative stereo), the inhibition in data set [1] turned out to be 9.7%. For the same molecule, the inhibition result in [2] is “inactive”.
Take `CCOC1CCC/C1=C\c1ccc(Cl)cc1` (stereo unspecified): the inhibition in [1] is 52.9%; in data set [2], 83.9%. Moreover, the values for the IC50 in data set [3] and in data set [4] were 62.1 µM and 22.5 µM, respectively. For the same molecule, the values for the Ki in data set [3] and in data set [4] were 30.5 µM and 20.5 µM, respectively.
In the case of `O=C(O)C1(c2ccccc2)CCCC1`, the inhibition came to 53.5% in data set [1] and 5.8% in data set [2]. The IC50 in [3] stood at 72.9 µM. Moreover, the Ki in data set [3] turned out to be 35.8 µM.
For `Cc1ccc(S(=O)(=O)N[C@@H]2CCC[C@H]2C(N)=O)cc1` (relative stereo), the inhibition in data set [1] was found to be 12.9%. For the same molecule, the inhibition entry in data set [2] is “inactive”.
The like results for `Cc1ccc(S(=O)(=O)N[C@@H]2CCC[C@H]2C(=O)O)cc1` (relative stereo) were, in that order, 26.1% and “inactive”.
